Measured values from patent US7105538B2, “2-pyrrolidin-2-yl-[1,3,4]-oxadiazole compounds and their use as anti-depressants” (Gruenenthal GmbH, priority 2002, dated 2006).

tested on: phenylquinone-induced writhing in mice; assay: Analgesic efficacy by phenylquinone-induced writhing in mice; assay type: in vivo; settings: male NMRI mice; 10 mg/kg i.v., 10 min before phenylquinone i.p.; writhing counted 5-20 min after phenylquinone
Method: Investigation of Analgesic Efficacy by Testing Writhing in Mice
The investigation into analgesic efficacy was performed by phenylquinone-induced writhing in mice (modified after: I. C. Hendershot and J. Forsaith (1959), J. Pharmacol. Exp. Ther. 125, 237–240). Male NMRI mice weighing from 25 to 30 g were used for this purpose. 10 minutes after intravenous administration of the compounds tested, groups of 10 animals per substance dose received 0.3 ml/mouse of a 0.02% aqueous solution of phenylquinone (phenylbenzoquinone, Sigma, Deisenhofen; solution prepared by adding 5% of ethanol and stored in a water bath at 45° C.) administered intraperitoneally. The animals were placed individually into observation cages. A pushbutton counter was used to record the number of pain-induced stretching movements (writhing reactions=straightening of the torso with stretching of the rear extremities) for 5–20 minutes after phenylquinone administration. The control was provided by animals which received only physiological common salt solution. All substances were tested at the standard dosage of 10 mg/kg. The percentage inhibition (% inhibition) of the writhing reactions by a substance was calculated according to the following formula: […]

Row | SMILES | % inhibition of writhing reaction by intravenous administration of 10 mg/kg
1 | O=C(CCC1CCCC1)N1CCCC1c1nnc(-c2cccc(Cl)c2)o1 (centres unmarked) [Example 247, 1-{2-[5-(3-chloro-phenyl)-[1,3,4]oxadiazol-2-yl]-pyrrolidin-1-yl}-3-cyclopentyl-propan-1-one] | 33%
2 | CCCCC(=O)N1CCCC1c1nnc(-c2cccc(Cl)c2)o1 (centres unmarked) [Example 248, 1-{2-[5-(3-chloro-phenyl)-[1,3,4]oxadiazol-2-yl]-pyrrolidin-1-yl}-pentan-1-one] | 45%

tested on: 5HT uptake (serotonin re-uptake), synaptosomes from rat brain; assay: Inhibition of serotonin re-uptake (5HT-uptake inhibition) in rat brain synaptosomes; assay type: biochemical; settings: synaptosomes (P2 fraction) from medulla+pons region of male rats' brains; test concentration not given
Method: Tests of Inhibition of Serotonin Re-Uptake (5HT-Uptake Inhibition)
To be able to carry out these studies in vitro, synaptosomes were freshly isolated from rat brain areas. What is known as a “P2” fraction was used in each case. This was prepared in accordance with Gray and Whittaker's directions (E. G. Gray and V. P. Whittaker (1962) J. Anat. 76, 79–88). These vesicular particles were isolated from the medulla+pons region of male rats' brains for 5HT uptake. A detailed description of the method may be found in the literature (M. Ch. Frink, H.-H. Hennies, W. Englberger, M. Haurand and B. Wilffert (1996) Arzneim. -Forsch./Drug Res. 46 (III), 11,1029–1036). The 5HT-uptake inhibition of the following compounds was tested by way of example: […]

Row | SMILES | 5HT uptake, % inhibition
3 | O=C(c1cc(C(F)(F)F)ccc1C(F)(F)F)N1CCCC1c1nnc(-c2ccc(Cl)cc2)o1 (centres unmarked) [Example 164, (2,5-bis-trifluoromethyl-phenyl)-{2-[5-(4-chloro-phenyl)-[1,3,4]oxadiazol-2-yl]-pyrrolidin-1-yl}-methanone] | 80%
4 | Cc1cc(C)c(CS(=O)(=O)N2CCCC2c2nnc(-c3ccccc3F)o2)c(C)c1 (centres unmarked) [Example 61, 2-(2-fluoro-phenyl)-5-[1-(2,4,6-trimethyl-benzylsulfonyl)-pyrrolidin-2-yl]-[1,3,4]oxadiazole] | 50%
5 | CCOc1ccc(C(=O)N2CCCC2c2nnc(-c3ccccc3)o2)cc1 (centres unmarked) [Example 109, (4-ethoxy-phenyl)-[2-(5-phenyl-[1,3,4]oxadiazol-2-yl)-pyrrolidin-1-yl]-methanone] | 54%
6 | O=C(c1ccc(SC(F)(F)F)cc1)N1CCCC1c1nnc(-c2ccccc2)o1 (centres unmarked) [Example 181, [2-(5-phenyl-[1,3,4]oxadiazol-2-yl)-pyrrolidin-1-yl]-(4-trifluoromethylsulfanyl-phenyl)-methanone] | 62%
7 | Cc1ccc(CS(=O)(=O)NC(Cc2ccccc2)C(=O)N2CCCC2c2nnc(-c3ccncc3)o2)cc1 (centres unmarked) [Example 21, N-{1-benzyl-2-oxo-2-[2-(5-pyridin-4-yl-[1,3,4]oxadiazol-2-yl)-pyrrolidin-1-yl]-ethyl}-4-methyl-benzylsulfonamide] | 53%
8 | O=C(c1cc(C(F)(F)F)ccc1C(F)(F)F)N1CCCC1c1nnc(-c2cccs2)o1 (centres unmarked) [Example 165, (2,5-bis-trifluoromethyl-phenyl)-[2-(5-thiophen-2-yl-[1,3,4]oxadiazol-2-yl)-pyrrolidin-1-yl]-methanone] | 76%
9 | COc1ccc(OC)c(CS(=O)(=O)N2CCCC2c2nnc(-c3cccnc3)o2)c1 (centres unmarked) [Example 30, 3-{5-[1-(2,5-dimethoxyl-benzylsulfonyl)-pyrrolidin-2-yl]-[1,3,4]oxadiazol-2-yl}-pyridine] | 60%
10 | O=C(c1c(F)cccc1F)N1CCCC1c1nnc(-c2ccncc2)o1 (centres unmarked) [Example 101, (2,6-difluoro-phenyl)-[2-(5-pyridin-4-yl-[1,3,4]oxadiazol-2-yl)-pyrrolidin-1-yl]-methanone] | 54%
11 | O=C(c1cccnc1Cl)N1CCCC1c1nnc(-c2ccncc2)o1 (centres unmarked) [Example 6, (2-chloro-pyridin-3-yl)-[2-(5-pyridin-4-yl-[1,3,4]oxadiazol-2-yl)pyrrolidin-1-yl]-methanone] | 84%
12 | Cc1nc(C(F)(F)F)ccc1C(=O)N1CCCC1c1nnc(-c2ccccc2)o1 (centres unmarked) [Example 174, (2-methyl-6-trifluoromethyl-pyridin-3-yl)-[2-(5-phenyl-[1,3,4]oxadiazol-2-yl)-pyrrolidin-1-yl]-methanone] | 61%
13 | COc1cccc(-c2nnc(C3CCCN3C(=O)c3cccc(F)c3F)o2)c1 (centres unmarked) [Example 173, (2,3-difluoro-phenyl)-{2-[5-(3-methoxy-phenyl)-[1,3,4]oxadiazol-2-yl]-pyrrolidin-1-yl}-methanone] | 62%
14 | O=S(=O)(Cc1ccc(F)cc1F)N1CCCC1c1nnc(-c2cccnc2)o1 (centres unmarked) [Example 86, 3-{5-[1-(2,4-difluoro-benzylsulfonyl)-pyrrolidin-2-yl]-[1,3,4]oxadiazol-2-yl}-pyridine] | 73%
15 | O=S(=O)(c1cc(Cl)c(Cl)s1)N1CCCC1c1nnc(-c2ccncc2)o1 (centres unmarked) [Example 22, 4-{5-[1-(4,5-dichloro-thiophene-2-sulfonyl)-pyrrolidin-2-yl]-[1,3,4]oxadiazol-2-yl}-pyridine] | 60%
16 | O=S(=O)(Cc1ccc(OC(F)(F)F)cc1)N1CCCC1c1nnc(-c2cccnc2)o1 (centres unmarked) [Example 134, 3-{5-[1-(4-trifluoromethoxy-benzylsulfonyl)-pyrrolidin-2-yl]-[1,3,4]oxadiazol-2-yl}-pyridine] | 55%
17 | O=C(N1CCc2ccc(S(=O)(=O)N3CCCC3c3nnc(-c4ccncc4)o3)cc2C1)C(F)(F)F (centres unmarked) [Example 182, 2,2,2-trifluoro-1-{7-[2-(5-pyridin-4-yl-[1,3,4]oxadiazol-2-yl)-pyrrolidin-1-sulfonyl]-3,4-dihydro-1H-isoquinolin-2-yl}-ethanone] | 52%
18 | O=C(COc1ccc(Cl)cc1)N1CCCC1c1nnc(-c2ccncc2)o1 (centres unmarked) [Example 67, 2-(4-chloro-phenoxy)-1-[2-(5-pyridin-4-yl-[1,3,4]oxadiazol-2-yl)-pyrrolidin-1-yl]-ethanone] | 50%
19 | COc1ccc(C(=O)N2CCCC2c2nnc(-c3ccncc3)o2)c(OC)c1 (centres unmarked) [Example 5, (2,4-dimethoxy-phenyl)-[2-(5-pyridin-4-yl-[1,3,4]oxadiazol-2-yl)-pyrrolidin-1-yl]methanone] | 81%
20 | CC1(C)C2CCC1(CS(=O)(=O)N1CCCC1c1nnc(-c3ccncc3)o1)C(=O)C2 (centres unmarked) [Example 7, 7,7-dimethyl-1-[2-(5-pyridin-4-yl-[1,3,4]oxadiazol-2-yl)-pyrrolidin-1-sulfonylmethyl]-bicyclo[2.2.1]heptan-2-one] | 64%
21 | O=C(C=Cc1ccccc1)N1CCCC1c1nnc(-c2ccccc2)o1 (centres unmarked) [Example 84, 3-phenyl-1-[2-(5-phenyl-[1,3,4]oxadiazol-2-yl)-pyrrolidin-1-yl]-propenone] | 61%
22 | COc1cccc(-c2nnc(C3CCCN3C(=O)c3ccnc(Cl)c3)o2)c1 (centres unmarked) [Example 94, (2-chloro-pyridin-4-yl)-{2-[5-(3-methoxy-phenyl)-[1,3,4]oxadiazol-2-yl]-pyrrolidin-1-yl}-methanone] | 50%
23 | Cc1nn(-c2ccccc2)nc1C(=O)N1CCCC1c1nnc(-c2ccncc2)o1 (centres unmarked) [Example 85, (5-methyl-2-phenyl-[1,2.3]triazol-4-yl)-[2-(5-pyridin-4-yl-[1,3,4]oxadiazol-2-yl)-pyrrolidin-1-yl]-methanone] | 61%
24 | O=C(c1ccc(Cl)cc1)N1CCCC1c1nnc(-c2ccc(-c3ccccc3)cc2)o1 (centres unmarked) [Example 14, [2-(5-biphenyl-4-yl-[1,3,4]oxadiazol-2-yl)-pyrrolidin-1-yl]-(4-chloro-phenyl)-methanone] | 69%
25 | COc1cccc(-c2nnc(C3CCCN3C(=O)c3ccc(Br)cc3)o2)c1 (centres unmarked) [Example 92, (4-bromo-phenyl)-{2-[5-(3-methoxy-phenyl)-[1,3,4]oxadiazol-2-yl]-pyrrolidin-1-yl}-methanone] | 58%
26 | COc1ccc(CC(=O)N2CCCC2c2nnc(-c3ccncc3)o2)cc1OC (centres unmarked) [Example 13, 2-(3,4-dimethoxy-phenyl)-1-[2-(5-pyridin-4-yl-[1,3,4]oxadiazol-2-yl)-pyrrolidin-1-yl]-ethanone] | 67%
27 | CN(C)c1cccc(C(=O)N2CCCC2c2nnc(-c3cccnc3)o2)c1 (centres unmarked) [Example 12, (3-dimethyamino-phenyl)-[2-(5-pyridin-3-yl-[1,3,4]oxadiazol-2-yl)-pyrrolidin-1-yl]-methanone] | 54%
28 | CCOC(=O)CCC(=O)N1CCCC1c1nnc(-c2ccncc2)o1 (centres unmarked) [Example 4, 4-oxo-4-[2-(5-pyridin-4-yl-[1,3,4]oxadiazol-2-yl)-pyrrolidin-1-yl]-butyric acid ethyl ester] | 72%
29 | CCCc1c(C(=O)N2CCCC2c2nnc(-c3cccnc3)o2)cnn1-c1ccccc1 (centres unmarked) [Example 166, (1-phenyl-5-propyl-1H-pyrazol-4-yl)-[2-(5-pyridin-3-yl-[1,3,4]oxadiazol-2-yl)-pyrrolidin-1-yl]-methanone] | 78%
